In US20060069132A1, “Azolecarboxamide herbicides” (priority 2004, published 2006):

Columns and labels:
barnyardgrass = experiment: Test B pre-/postemergence herbicide test; format: in vivo, Echinochloa crus-galli; conditions: for Barnyardgrass plant response rating: postemergence
Procedure, shortened: (§1)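 Species tested were Echinochloa crus-galli, Ipomoea coccinea, Xanthium strumarium and Oryza sativa, treated both before emergence and at the 1- to 4-leaf stage; rice and barnyardgrass were also tested under flooding at 2 leaves. Greenhouse incubation lasted 13–15 days before visual 0–100 scoring.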

Surinam grass = experiment: Test B pre-/postemergence herbicide test; format: in vivo, Urochloa decumbens; conditions: for Surinam Grass plant response rating: postemergence
Procedure, shortened: (§2)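 Seeds were planted and treated preemergence with compounds formulated in a non-phytotoxic solvent mixture containing surfactant, while plants at the 1- to 4-leaf stage (2 to 18 cm) received postemergence sprays. Flooded paddy plants were grown to the 2-leaf stage. After 13 to 15 days in a greenhouse, injury was visually rated 0–100 against untreated controls.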

cocklebur = experiment: Test B pre-/postemergence herbicide test; format: in vivo, Xanthium strumarium; conditions: for Cocklebur plant response rating: postemergence
Procedure, shortened: as §1

corn = experiment: Test B pre-/postemergence herbicide test; format: in vivo, Zea mays; conditions: for Corn plant response rating: postemergence
Procedure, shortened: as §2

large crabgrass = experiment: Test B pre-/postemergence herbicide test; format: in vivo, Digitaria sanguinalis; conditions: for Crabgrass, Large plant response rating: postemergence
Procedure, shortened: as §2

giant foxtail = experiment: Test B pre-/postemergence herbicide test; format: in vivo, Setaria faberi; conditions: for Foxtail, Giant plant response rating: postemergence
Procedure, shortened: as §2

lambsquarters = experiment: Test B pre-/postemergence herbicide test; format: in vivo, Chenopodium album; conditions: for Lambsquarters plant response rating: postemergence
Procedure, shortened: as §2

pigweed = experiment: Test B pre-/postemergence herbicide test; format: in vivo, Amaranthus retroflexus; conditions: for Pigweed plant response rating: postemergence
Procedure, shortened: as §2

velvetleaf = experiment: Test B pre-/postemergence herbicide test; format: in vivo, Abutilon theophrasti; conditions: for Velvetleaf plant response rating: postemergence
Procedure, shortened: as §2

blackgrass = experiment: Test B postemergence herbicide test; format: in vivo, Alopecurus myosuroides; conditions: postemergence
Procedure, shortened: (§3)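 Plants grow to 1- to 4-leaf stage (2–18 cm) for postemergence spraying, or to 2-leaf stage for the paddy test. Formulated compound is applied. Greenhouse holding lasts 13–15 days. Response is scored visually relative to controls, 0 no effect to 100 complete control; a dash means no result.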

wheat = experiment: Test B postemergence herbicide test; format: in vivo, Triticum aestivum; parameters: key to Wheat plant response rating: 0 = no effect, 100 = complete control; conditions: postemergence
Procedure, shortened: (§4)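 Formulated test chemicals went onto postemergence plants measuring 2 to 18 cm, at one to four leaves. For the paddy assay, species had reached two leaves. Scoring took place 13–15 days later by eye, relative to untreated plants, using 0 for no effect up to 100 for full control.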

wild oat = experiment: Test B postemergence herbicide test; format: in vivo, Avena fatua; conditions: postemergence
Procedure, shortened: as §4

rice = experiment: Test B flooded paddy test; format: in vivo, Oryza sativa; conditions: 1000 g ai/ha, scale 0 to 100 (0 no effect, 100 complete control)
Procedure, shortened: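 Visual ratings, 0 (no effect) to 100 (complete control), made versus controls after 13–15 d greenhouse. Paddy plants treated at 2-leaf stage; postemergence plants at 1- to 4-leaf stage, 2–18 cm tall.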

[1] = test system: small flower umbrella sedge; experiment: Test B flooded paddy test; format: in vivo, Cyperus difformis; conditions: 1000 g ai/ha, scale 0 to 100 (0 no effect, 100 complete control)
Procedure, shortened: as §3

ducksalad = experiment: Test B flooded paddy test; format: in vivo, Heteranthera limosa; conditions: 1000 g ai/ha, scale 0 to 100 (0 no effect, 100 complete control)
Procedure, shortened: as §3

[2] = 125 g ai/ha, 0 = no effect, 100 = complete control, preemergence
[3] = 125 g ai/ha, visual rating, scale 0 (no effect) to 100 (complete control)
[4] = 500 g ai/ha, visual rating, 0 = no effect, 100 = complete control, preemergence
[5] = 500 g ai/ha, scale 0 to 100, 0 is no effect, 100 is complete control

CCn1nc(C2(C)CC2)cc1C(=O)Nc1cccc(C(=O)N2CC=CC2)c1 [Compound 304]
Barnyardgrass plant response rating (0 to 100 scale) (barnyardgrass; [2]): 10 | Barnyardgrass plant response rating (barnyardgrass; [3]): 20 | Plant response rating, Barnyardgrass (barnyardgrass; [4]): 70 | Barnyardgrass plant response rating (barnyardgrass; [5]): 20 | Surinam Grass plant response rating (0 to 100 scale) (Surinam grass; [2]): 10 | Surinam Grass plant response rating (Surinam grass; [3]): 0 | Plant response rating, Surinam Grass (Surinam grass; [4]): 70 | Surinam Grass plant response rating (Surinam grass; [5]): 10 | Cocklebur plant response rating (0 to 100 scale) (cocklebur; [2]): 0 | Cocklebur plant response rating (cocklebur; [3]): 0 | Plant response rating, Cocklebur (cocklebur; [4]): 0 | Cocklebur plant response rating (cocklebur; [5]): 100 | Corn plant response rating (0 to 100 scale) (corn; [2]): 0 | Corn plant response rating (corn; [3]): 40 | Corn plant response rating (corn; [5]): 80 | Crabgrass, Large plant response rating (0 to 100 scale) (large crabgrass; [2]): 10 | Crabgrass, Large plant response rating (large crabgrass; [3]): 10 | Plant response rating, Crabgrass, Large (large crabgrass; [4]): 100 | Crabgrass, Large plant response rating (large crabgrass; [5]): 10 | Foxtail, Giant plant response rating (0 to 100 scale) (giant foxtail; [2]): 10 | Foxtail, Giant plant response rating (giant foxtail; [3]): 30 | Plant response rating, Foxtail, Giant (giant foxtail; [4]): 90 | Foxtail, Giant plant response rating (giant foxtail; [5]): 30 | Lambsquarters plant response rating (0 to 100 scale) (lambsquarters; [2]): 100 | Lambsquarters plant response rating (lambsquarters; [3]): 80 | Plant response rating, Lambsquarters (lambsquarters; [4]): 100 | Lambsquarters plant response rating (lambsquarters; [5]): 90 | Pigweed plant response rating (0 to 100 scale) (pigweed; [2]): 100 | Pigweed plant response rating (pigweed; [3]): 90 | Plant response rating, Pigweed (pigweed; [4]): 100 | Pigweed plant response rating (pigweed; [5]): 90 | Velvetleaf plant response rating (velvetleaf; [3]): 10 | Plant response rating, Velvetleaf (velvetleaf; [4]): 100 | Velvetleaf plant response rating (velvetleaf; [5]): 60 | Blackgrass plant response rating (blackgrass; [3]): 10 | Blackgrass plant response rating (blackgrass; [5]): 40 | Wheat plant response rating (wheat; [3]): 10 | Wheat plant response rating (wheat; [5]): 20 | Oat, Wild plant response rating (wild oat; [3]): 30 | Oat, Wild plant response rating (wild oat; [5]): 40 | Rice plant response rating (rice): 90 | Sedge, Umbrella plant response rating [1]: 90 | Ducksalad plant response rating (ducksalad): 90
